The source of these data is US10196374B2 (AstraZeneca AB, priority 2014, dated 2019).

Test [1] addresses T1, human glucocorticoid receptor (GR) (Homo sapiens (Human), UniProt P04150). Nature of the test: GRE Antagonist Assay (ChagoK1 18:7:2 s4/GRE reporter cells pre-stimulated with dexamethasone). As to conditions: for Emax at 1 µM: ChaGo-K-1, relative to full antagonist effect of Mifepristone (RU486), read-out: TA antagonist Observed max Effect at 1 μM (%); for TA antagonist pIC50: transactivation in antagonist mode, pre-stimulated with dexamethasone 70 nM. Type of test: cell-based. From the text: GRE Antagonist Assay A reporter cell line (ChagoK1 18:7:2 s4/GRE) was established by stable transfection of the human bronchogenic carcinoma celline, ChaGo K1 (ATCC: HTB 168) with a MMTV-GRE-LacZ reporter construct. The generated cell line allows for identification of compounds showing antagonist activity at the human glucocorticoid receptor (GR) via reduction of LacZ gene expression. Dexamethasone-activated GR binds to the Glucocorticoid Response Element (GRE) in the promoter of the LacZ gene and transcription is initiated. Antagonistic properties of compounds are assessed as beta-galactosidase intensity reduction from pre-stimulation with dexamethasone through a colour reaction (change in absorbance). Cryo-preserved ChagoK1 18:7:2 s4/GRE cells were suspended in RPMI medium with 10% FBS, 1% NEAA and 1% sodium pyruvate, and seeded as 50000 cells/200 ul/well in 96-well plates and cultured at 37° C. with 5% CO2 and 95% humidity for 24 hr. […] The reaction was then terminated by addition of 100 μl stop solution (300 mM glycine, 15 mM EDTA, pH 11.3, adjusted with NaOH). The plates were measured at 420 nm for absorbance in a SpectraMax reader (Molecular Device). […]) Where A=min Y, B=max Y, C=log IC50 and D=Slope factor

Test [2] deals with T1, human glucocorticoid receptor (GR). Nature of the test: GRE Agonist Assay (ChagoK1 18:7:2 s4/GRE MMTV-GRE-LacZ reporter cell line). The class given is cell-based. The conditions noted are these: for Emax at 1 µM: ChaGo-K-1, relative to full agonist effect of dexamethasone, read-out: TA agonist Observed max Effect at 1 μM (%); for TA agonist pEC50: transactivation in agonist mode, ChagoK1 GRE-LacZ reporter cells, 24 hours. An excerpt: GRE Agonist Assay A reporter cell line (ChagoK1 18:7:2 s4/GRE) was established by stable transfection of the human bronchogenic carcinoma cell line, ChaGo K1 (ATCC: HTB 168) with a MMTV-GRE-LacZ reporter construct. The generated cell line allows for identification of compounds showing agonist activity at the human glucocorticoid receptor (GR) via induction of LacZ gene expression. Ligand-activated GR binds to the Glucocorticoid Response Element (GRE) in the promoter of the LacZ gene and transcription is initiated. The resulting beta-galactosidase activity is measured through a colour reaction (change in absorbance). Cryo-preserved ChagoK1 18:7:2 s4/GRE cells were suspended in RPMI medium with 10% FBS, 1% NEAA and 1% sodium pyruvate, and seeded as 50000 cells/200 ul/well in 96-well plates and cultured at 37° C. with 5% CO2 and 95% humidity for 24 hours. 1 μl compound was added at different concentrations to the cells and incubated for another 24 hours. […] The reaction was then terminated by addition of 100 μl stop solution (300 mM glycine, 15 mM EDTA, pH 11.3, adjusted with NaOH). […]) Where A=min Y, B=max Y, C=log EC50 and D=Slope factor

T1 sequence (P04150 whole entry): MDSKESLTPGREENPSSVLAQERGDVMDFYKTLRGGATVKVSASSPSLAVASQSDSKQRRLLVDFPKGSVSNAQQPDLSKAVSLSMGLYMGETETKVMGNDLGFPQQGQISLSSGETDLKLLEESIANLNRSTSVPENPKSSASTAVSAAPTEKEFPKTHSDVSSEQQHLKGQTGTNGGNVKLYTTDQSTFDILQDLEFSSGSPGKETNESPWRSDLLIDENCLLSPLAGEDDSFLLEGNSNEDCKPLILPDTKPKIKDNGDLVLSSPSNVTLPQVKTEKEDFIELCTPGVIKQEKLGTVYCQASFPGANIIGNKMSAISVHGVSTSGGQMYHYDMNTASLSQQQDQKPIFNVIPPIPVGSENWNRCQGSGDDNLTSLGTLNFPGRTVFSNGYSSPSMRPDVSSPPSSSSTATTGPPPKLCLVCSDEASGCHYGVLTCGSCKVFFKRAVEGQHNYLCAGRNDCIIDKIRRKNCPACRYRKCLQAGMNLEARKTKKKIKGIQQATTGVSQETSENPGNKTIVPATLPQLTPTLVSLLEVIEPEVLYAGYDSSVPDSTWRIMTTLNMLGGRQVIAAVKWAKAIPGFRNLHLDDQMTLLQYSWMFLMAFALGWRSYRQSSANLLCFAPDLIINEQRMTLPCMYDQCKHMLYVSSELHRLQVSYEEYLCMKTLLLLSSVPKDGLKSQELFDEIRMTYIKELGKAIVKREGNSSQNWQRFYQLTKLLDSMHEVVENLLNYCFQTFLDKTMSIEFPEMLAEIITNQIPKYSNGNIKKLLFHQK

Turning to `CC(C)[C@H](NC(=O)C(F)(F)F)[C@H](Oc1ccc2c(cnn2-c2ccc(=O)n(C)c2)c1)c1ccccc1` [Example 2, 2,2,2-trifluoro-N-[(1R,2S)-3-methyl-1-{[1-(1-methyl-6-oxo-1,6-dihydropyridin-3-yl)-1H-indazol-5-yl]oxy}-1-phenylbutan-2-yl]acetamide], the results for the Emax at 1 µM in test [1] and in test [2] were 67% and 25%, respectively.
Consider `CC(C)[C@H](NC(=O)C(F)(F)F)[C@H](Oc1ccc2c(cnn2-c2ccc(=O)n(C)c2)c1)c1cc(F)cc(F)c1` [Example 4], for which, in test [1], the Emax at 1 µM came out at 51% and the “TA antagonist pIC50” value was 8.8. In test [2], the Emax at 1 µM was 42% and the “TA agonist pEC50” value is recorded as 8.7.
On the same counts, the results for `CC(C)[C@H](NC(=O)C(C)(F)F)[C@H](Oc1ccc2c(cnn2-c2ccc(=O)n(C)c2)c1)c1cccc(Cl)c1` [Example 5, N-[(1R,2S)-1-(3-chlorophenyl)-3-methyl-1-{[1-(1-methyl-6-oxo-1,6-dihydropyridin-3-yl)-1H-indazol-5-yl]oxy}butan-2-yl]-2,2-difluoropropanamide] are 72%, 6.7, 28% and 8.6.
On the same counts, the results for `CC(C)[C@H](NC(=O)C(C)(F)F)[C@H](Oc1ccc2c(cnn2-c2ccc(=O)n(C)c2)c1)c1ccc(Cl)cc1` [Example 7, N-[(1R,2S)-1-(4-chlorophenyl)-3-methyl-1-{[1-(1-methyl-6-oxo-1,6-dihydropyridin-3-yl)-1H-indazol-5-yl]oxy}butan-2-yl]-2,2-difluoropropanamide] are 54%, 7.1, 46% and 8.1.
For the compound `CC(C)[C@H](NC(=O)C(C)(F)F)[C@H](Oc1ccc2c(cnn2-c2ccc(=O)n(C)c2)c1)c1cc(Cl)cc(Cl)c1` [Example 8, N-[(1R,2S)-1-(3,5-dichlorophenyl)-3-methyl-1-{[1-(1-methyl-6-oxo-1,6-dihydropyridin-3-yl)-1H-indazol-5-yl]oxy}butan-2-yl]-2,2-difluoropropanamide], in test [1], the Emax at 1 µM worked out at 56% and the “TA antagonist pIC50” value is 6.8. Besides, in test [2], the Emax at 1 µM came to 36% and the “TA agonist pEC50” value turned out to be 7.7.
On the same counts, the results for `CC(C)[C@H](NC(=O)C(C)(F)F)[C@H](Oc1ccc2c(cnn2-c2ccc(=O)n(C)c2)c1)c1ccc(OC(F)(F)F)cc1` [Example 9, 2,2-difluoro-N-{(1R,2S)-3-methyl-1-{[1-(1-methyl-6-oxo-1,6-dihydropyridin-3-yl)-1H-indazol-5-yl]oxy}-1-[4-(trifluoromethoxy)phenyl]butan-2-yl}propanamide] are 63%, 6.9, 22% and 7.7.
As for `CC(C)[C@H](NC(=O)C(C)(F)F)[C@H](Oc1ccc2c(cnn2-c2ccc(=O)n(C)c2)c1)c1ccc(C(F)(F)F)cc1` [Example 10, 2,2-difluoro-N-{(1R,2S)-3-methyl-1-{[1-(1-methyl-6-oxo-1,6-dihydropyridin-3-yl)-1H-indazol-5-yl]oxy}-1-[4-(trifluoromethyl)phenyl]butan-2-yl}propanamide], in test [1], the Emax at 1 µM turned out to be 51% and the “TA antagonist pIC50” value stood at 7.0. In addition, in test [2], the Emax at 1 µM was 40% and the “TA agonist pEC50” value stood at 8.1.
For `CC(C)[C@H](NC(=O)C(C)(F)F)[C@H](Oc1ccc2c(cnn2-c2ccc(=O)n(C)c2)c1)c1ccc(OC(F)F)cc1` [Example 11, N-[(1R,2S)-1-[4-(difluoromethoxy)phenyl]-3-methyl-1-{[1-(1-methyl-6-oxo-1,6-dihydropyridin-3-yl)-1H-indazol-5-yl]oxy}butan-2-yl]-2,2-difluoropropanamide], in that order: 62%, 6.7, 28% and 8.1.
On the same counts, the results for `Cc1cc2c(cnn2-c2ccc(=O)n(C)c2)cc1O[C@H](c1ccccc1)[C@@H](NC(=O)C(C)(F)F)C(C)C` [Example 12, 2,2-difluoro-N-[(1R,2S)-3-methyl-1-{[6-methyl-1-(1-methyl-6-oxo-1,6-dihydropyridin-3-yl)-1H-indazol-5-yl]oxy}-1-phenylbutan-2-yl]propanamide] are 48%, 7.1, 46% and 8.4.
Consider `CC(C)[C@H](NC(=O)C(F)(F)F)[C@H](Oc1ccc2c(cnn2-c2ccc(=O)n(C)c2)c1)c1ccc(Cl)cc1` [Example 13, N-[(1R,2S)-1-(4-chlorophenyl)-3-methyl-1-{[1-(1-methyl-6-oxo-1,6-dihydropyridin-3-yl)-1H-indazol-5-yl]oxy}butan-2-yl]-2,2,2-trifluoroacetamide], for which, in test [1], the Emax at 1 µM amounted to 72% and the “TA antagonist pIC50” value was 6.9. In test [2], the Emax at 1 µM was found to be 28% and the “TA agonist pEC50” value was determined as 8.3.
On the same counts, the results for `CC(C)[C@H](NC(=O)C(F)(F)F)[C@H](Oc1ccc2c(cnn2-c2ccc(=O)n(C)c2)c1)c1cc(Cl)cc(Cl)c1` [Example 14, N-[(1R,2S)-1-(3,5-dichlorophenyl)-3-methyl-1-{[1-(1-methyl-6-oxo-1,6-dihydropyridin-3-yl)-1H-indazol-5-yl]oxy}butan-2-yl]-2,2,2-trifluoroacetamide] are 65%, 6.9, 20% and 7.7.
`CC(C)[C@H](NC(=O)C(F)(F)F)[C@H](Oc1ccc2c(cnn2-c2ccc(=O)n(C)c2)c1)c1ccc(C(F)(F)F)cc1` [Example 15, 2,2,2-trifluoro-N-{(1R,2S)-3-methyl-1-{[1-(1-methyl-6-oxo-1,6-dihydropyridin-3-yl)-1H-indazol-5-yl]oxy}-1-[4-(trifluoromethyl)phenyl]butan-2-yl}acetamide]: in test [1], the Emax at 1 µM worked out at 64% and the “TA antagonist pIC50” value amounted to 7.3. For the same compound, in test [2], the Emax at 1 µM is 27% and the “TA agonist pEC50” value is on record as 8.2.
On the same counts, the results for `CC(C)[C@H](NC(=O)C(F)(F)F)[C@H](Oc1ccc2c(cnn2-c2ccc(=O)n(C)c2)c1)c1ccc(OC(F)F)cc1` [Example 16, N-[(1R,2S)-1-[4-(difluoromethoxy)phenyl]-3-methyl-1-{[1-(1-methyl-6-oxo-1,6-dihydropyridin-3-yl)-1H-indazol-5-yl]oxy}butan-2-yl]-2,2,2-trifluoroacetamide] are 75%, 6.6, 20% and 8.0.
For `CC(C)[C@H](NC(=O)C(F)(F)F)[C@H](Oc1ccc2c(cnn2-c2ccc(=O)n(C)c2)c1)c1ccc(Cl)c(F)c1` [Example 17, N-[(1R,2S)-1-(4-chloro-3-fluorophenyl)-3-methyl-1-{[1-(1-methyl-6-oxo-1,6-dihydropyridin-3-yl)-1H-indazol-5-yl]oxy}butan-2-yl]-2,2,2-trifluoroacetamide], in that order: 79%, 7.4, 32% and 8.4.
